ChEMBL document CHEMBL6109034, “Discovery of novel tetracyclic quinazolines as multi-KRASinhibitors for the treatment of solid tumors” (Bioorg Med Chem Lett, 2025)
Active and inactive are the calls of the source. The calls are words filed in the database; no cut-off is given here.

What was measured:
[1] = system: ASPC1; test: Antiproliferative activity against human ASPC1 cells harbouring KRAS G12D mutant assessed as reduction in cell viability incubated for 72 hrs; type: functional, cell-based
[2] = system: SW-620; test: Antiproliferative activity against human SW620 cells harbouring KRAS G12V mutant assessed as inhibition of cell growth incubated for 72 hrs by Luminescence based assay; type: functional; settings: SW-620, 72 h
[3] = biological target: T1, GTPase KRas (Homo sapiens, UniProt P01116, G12D); test: Inhibition of KRas G12D mutant in human SW620 cells assessed as inhibition of ERK phosphorylation at Thr202/Tyr204 residues incubated for 3 hrs by Western blot analysis; type: cell-based
[4] = system: HT-29; test: Antiproliferative activity against human HT-29 cells harbouring wild-type KRAS assessed as cell growth inhibition by CellTiter-Glo assay; type: functional, cell-based
[5] = biological target: T1, GTPase KRas; test: Inhibition of KRas G12D mutant in human ASPC1 cells assessed as inhibition of ERK phosphorylation at Thr202/Tyr204 residues incubated for 3 hrs by Western blot analysis; type: cell-based
[6] = system: GTPase KRas (Homo sapiens), P01116 [G12D]; test: Inhibition of KRas G12D mutant in human ASPC1 cells assessed as assessed as downregulation of DUSP4 at 0.05 to 300 nM incubated for 3 hrs by Western blot analysis; type: cell-based; settings: dose 0.05-300 nM

Compound | IC50 ([1]; Homo sapiens, ASPC1, 72 h) | IC50 [2] | IC50 ([1]; aspc1) | other results
N#Cc1c(N)sc2c(F)ccc(-c3c(Cl)c4c5c(nc(OC[C@@]67CCCN6C[C@H](F)C7)nc5c3F)N3CCCCC[C@@H]3CO4)c12 | 3250 nM | 347 nM |  | 
N#Cc1c(N)sc2c(F)ccc(-c3c(Cl)c4c5c(nc(OC[C@@]67CCCN6C[C@H](F)C7)nc5c3F)N3CCCCC[C@H]3CO4)c12 | 354 nM | 2.6 nM |  | 
N#Cc1c(N)sc2c(F)ccc(-c3c(Cl)c4c5c(nc(OC[C@@]67CCCN6C[C@H](F)C7)nc5c3F)N3CCCOC[C@H]3CO4)c12 (single isomer, unassigned; atropisomer 1) |  |  | 8780 nM | 
N#Cc1c(N)sc2c(F)ccc(-c3c(Cl)c4c5c(nc(OC[C@@]67CCCN6C[C@H](F)C7)nc5c3F)N3CCCCCC3CO4)c12 (single isomer, unassigned; atropisomer 1) |  |  | 4000 nM | 
N#Cc1c(N)sc2c(F)ccc(-c3c(Cl)c4c5c(nc(OC[C@@]67CCCN6C[C@H](F)C7)nc5c3F)N3CCCOC[C@H]3CO4)c12 (single isomer, unassigned; atropisomer 2) [listing 1 of 2 here] |  | 0.6 nM | 378 nM | IC50 [3]: 1 nM; IC50 [4]: 3230 nM; IC50 [5]: 0.6 nM
N#Cc1c(N)sc2c(F)ccc(-c3c(Cl)c4c5c(nc(OC[C@@]67CCCN6C[C@H](F)C7)nc5c3F)N3CCCCCC3CO4)c12 (single isomer, unassigned; atropisomer 2) |  | 4.4 nM | 713 nM | 
N#Cc1c(N)sc2c(F)ccc(-c3c(Cl)c4c5c(nc(OC[C@@]67CCCN6C[C@H](F)C7)nc5c3F)N3CCCOC[C@H]3CO4)c12 (single isomer, unassigned; atropisomer 2) [listing 2 of 2 here] |  |  |  | Activity [6]: Active

Second part, led by results:

IC50 ([1]; Homo sapiens, ASPC1, 72 h) | IC50 [2] | IC50 ([1]; aspc1) | Compound | other results
1150 nM | 151 nM |  | Nc1nc2c(-c3c(Cl)c4c5c(nc(OC[C@@]67CCCN6C[C@H](F)C7)nc5c3F)N3CCCCCC3CO4)ccc(F)c2s1 (stereo not given in full) | 
1920 nM | 22.6 nM |  | Nc1nc2c(-c3c(Cl)c4c5c(nc(OC[C@@]67CCCN6C[C@H](F)C7)nc5c3F)N3CCCOC[C@H]3CO4)ccc(F)c2s1 | 
8240 nM | 208 nM |  | Nc1nc2c(-c3c(Cl)cc4c(N5CCCOCC5)nc(OC[C@@]56CCCN5C[C@H](F)C6)nc4c3F)ccc(F)c2s1 | 
